# Test results taken from US20230091888A1, “HERBICIDE COMBINATIONS COMPRISING GLUFOSINATE AND SELECTED PPO INHIBITORS” (BASF SE, priority 2020, published 2023).
# Experiments:
# Assay in all cases: Greenhouse post-emergence weed control, percent injury vs untreated control
# Format in all cases: in vivo
# Details in all cases: 19 DAT
# [1] = tested on: Echinochloa crus-galli (ECHCG)
# [2] = tested on: Amaranthus tuberculatus (AMATU)
# [3] = tested on: Ambrosia artemisiifolia (AMBEL)
# [4] = tested on: Amaranthus Palmeri (AMAPA)
# Hordeum vulgare (HORVS) = tested on: Hordeum vulgare (HORVS)
# Galium aparine (GALAP) = tested on: Galium aparine (GALAP)
molecule,measurement,setting,value
Oxadiargyl,Solo Oxadiargyl (3.125 g ai/ha) % activity,[1]; 3.125 g ai/ha,15%
same,Solo Oxadiargyl (6.25 g ai/ha) % activity,[2]; 6.25 g ai/ha,40%
same,Solo Oxadiargyl (3.125 g ai/ha) % activity,[3]; 3.125 g ai/ha,20%
same,Solo Oxadiargyl (6.25 g ai/ha) % activity,[3]; 6.25 g ai/ha,10%
same,Solo Oxadiargyl (3.125 g ai/ha) % activity,[4]; 3.125 g ai/ha,40%
same,Solo Oxadiargyl (6.25 g ai/ha) % activity,[4]; 6.25 g ai/ha,30%
"N#Cc1cnn(-c2nn3c(c2Cl)CCCC3)c1NCC1CC1 [cyclopyranyl, cyclopyranil]",Solo cyclopyranyl (6.25 g ai/ha) % activity,[1]; 6.25 g ai/ha,25%
same,Solo cyclopyranyl (6.25 g ai/ha) % activity,[2]; 6.25 g ai/ha,65%
same,Solo cyclopyranyl (6.25 g ai/ha) % activity,Hordeum vulgare (HORVS); 6.25 g ai/ha,15%
same,Solo cyclopyranyl (1.5625 g ai/ha) % activity,[4]; 1.5625 g ai/ha,10%
same,Solo cyclopyranyl (3.125 g ai/ha) % activity,[4]; 3.125 g ai/ha,10%
same,Solo cyclopyranyl (6.25 g ai/ha) % activity,[4]; 6.25 g ai/ha,25%
same,Solo cyclopyranyl (6.25 g ai/ha) % activity,Galium aparine (GALAP); 6.25 g ai/ha,65%
C#CCN(C)c1c(C#N)cnn1-c1nn2c(c1Cl)CCCC2 [Pyraclonil],Solo pyraclonil (1.5625 g ai/ha) % activity,[2]; 1.5625 g ai/ha,20%
same,Solo Pyraclonil (6.25 g ai/ha) % activity,[2]; 6.25 g ai/ha,35%
same,Solo pyraclonil (1.5625 g ai/ha) % activity,[3]; 1.5625 g ai/ha,25%
same,Solo Pyraclonil (6.25 g ai/ha) % activity,[3]; 6.25 g ai/ha,65%
same,Solo pyraclonil (3.125 g ai/ha) % activity,Hordeum vulgare (HORVS); 3.125 g ai/ha,0%
same,Solo pyraclonil (3.125 g ai/ha) % activity,[4]; 3.125 g ai/ha,30%
same,Solo Pyraclonil (6.25 g ai/ha) % activity,[4]; 6.25 g ai/ha,20%
"CP(=O)(O)CCC(N)C(=O)O (racemic) [Glufosinate, (2RS)-2-amino-4-[hydroxy(methyl)phosphinoyl]butyric acid]",inhibition at 50 g/ha,"[1]; Echinochloa crus-galli, 456 h, 50 g ai/ha, read-out: Solo Glufosinate (50 g ai/ha) % activity",10%
same,inhibition at 100 g/ha,"[1]; Echinochloa crus-galli, 456 h, 100 g ai/ha, read-out: Solo Glufosinate (100 g ai/ha) % activity",25%
same,inhibition at 200 g/ha,"[1]; Echinochloa crus-galli, 456 h, 200 g ai/ha, read-out: Solo Glufosinate (200 g ai/ha) % activity",70%
same,inhibition at 50 g/ha,"[2]; Amaranthus tuberculatus, 456 h, 50 g ai/ha, read-out: Solo Glufosinate (50 g ai/ha) % activity",40%
same,inhibition at 100 g/ha,"[2]; Amaranthus tuberculatus, 456 h, 100 g ai/ha, read-out: Solo Glufosinate (100 g ai/ha) % activity",70%
same,inhibition at 200 g/ha,"[2]; Amaranthus tuberculatus, 456 h, 200 g ai/ha, read-out: Solo Glufosinate (200 g ai/ha) % activity",90%
same,inhibition at 50 g/ha,"[3]; Ambrosia artemisiifolia, 456 h, 50 g ai/ha, read-out: Solo Glufosinate (50 g ai/ha) % activity",40%
same,inhibition at 100 g/ha,"Hordeum vulgare (HORVS); Hordeum vulgare, 456 h, 100 g ai/ha, read-out: Solo Glufosinate (100 g ai/ha) % activity",0%
same,inhibition at 200 g/ha,"Hordeum vulgare (HORVS); Hordeum vulgare, 456 h, 200 g ai/ha, read-out: Solo Glufosinate (200 g ai/ha) % activity",30%
same,inhibition at 50 g/ha,"[4]; Amaranthus palmeri, 456 h, 50 g ai/ha, read-out: Solo Glufosinate (50 g ai/ha) % activity",35%
same,inhibition at 100 g/ha,"[4]; Amaranthus palmeri, 456 h, 100 g ai/ha, read-out: Solo Glufosinate (100 g ai/ha) % activity",30%
same,inhibition at 200 g/ha,"[4]; Amaranthus palmeri, 456 h, 200 g ai/ha, read-out: Solo Glufosinate (200 g ai/ha) % activity",80%
same,inhibition at 50 g/ha,"Galium aparine (GALAP); Galium aparine, 456 h, 50 g ai/ha, read-out: Solo Glufosinate (50 g ai/ha) % activity",30%
